Experiment: xn = mol fraction of the nth substance listed

CC[N+](CC)(CC)CC.[Cl-] + NCCCO
viscosity [mPa·s], 101.3 kPa
Conditions	293.15 K	298.15 K	303.15 K	308.15 K	313.15 K	318.15 K	323.15 K	328.15 K	333.15 K
x2 = 0.8	55.2	42.4	32.9	26.2	21.2	17.4	14.4	12.1	10.3
x2 = 0.8571	46.6	35.8	27.9	22.3	18	14.8	12.3	10.4	8.8
x2 = 0.8889	43.4	33.4	26.1	21	16.9	14	11.6	9.8	8.3

CC(=O)[O-].[K+] + O + CCCC[n+]1ccn(C)c1.N#C[S-]
viscosity [mPa·s], 101 kPa
Conditions	298.15 K	308.15 K	313.15 K
x1 = 0.01175, x2 = 0.8368	–	–	4.625
x1 = 0.1054, x2 = 0.8943	3.195	2.485	–

CCCC[n+]1ccn(C)c1.N#C[S-] + CCCCO
101 kPa
Conditions	viscosity [mPa·s]
298.15 K, x2 = 0.5596	11.2
298.15 K, x2 = 0.6222	9.23
298.15 K, x2 = 0.79	5.28
298.15 K, x2 = 0.9738	2.9
308.15 K, x2 = 0.6834	5.8
318.15 K, x2 = 0.0911	19
318.15 K, x2 = 0.5596	6.55
318.15 K, x2 = 0.6222	5.5
318.15 K, x2 = 0.6834	4.59
318.15 K, x2 = 0.9738	1.81
328.15 K, x2 = 0.4552	6.86
328.15 K, x2 = 0.6834	3.72
338.15 K, x2 = 0.5596	4.19
338.15 K, x2 = 0.6222	3.6
348.15 K, x2 = 0.3317	5.78
348.15 K, x2 = 0.8975	1.34
348.15 K, x2 = 0.9738	1

CCCC[N+](C)(CCCC)CCCC.[Cl-] + N[C@@H](Cc1ccccc1)C(=O)O + O
viscosity [mPa·s], 101.3 kPa
Conditions	293.15 K	298.15 K	303.15 K	308.15 K	313.15 K
x2 = 0, x1 = 0.00144	–	–	–	–	0.7
x2 = 0.0003636, x1 = 0.00072	0.99	0.89	0.76	0.67	–
x2 = 0.0003667, x1 = 0.001439	0.98	0.9	0.78	0.79	0.71
x2 = 0.000726, x1 = 0.0007198	1	0.9	0.77	0.68	–
x2 = 0.0007319, x1 = 0.001438	0.99	0.91	0.8	0.8	0.72
x2 = 0.00109, x1 = 0.0007195	1.02	0.92	0.78	0.69	–
x2 = 0.001099, x1 = 0.001438	1.01	0.92	0.81	0.81	0.74
x2 = 0.001452, x1 = 0.0007192	1.03	0.93	0.79	0.71	–
x2 = 0.001466, x1 = 0.001437	1.02	0.94	0.82	0.83	0.75
x2 = 0.001813, x1 = 0.000719	1.04	0.94	0.81	0.72	–
x2 = 0.001828, x1 = 0.001437	1.03	0.95	0.84	0.84	0.76
x2 = 0.002175, x1 = 0.0007187	1.06	0.96	0.82	0.73	–
x2 = 0.002194, x1 = 0.001436	1.05	0.96	0.85	0.85	0.78
x2 = 0.002538, x1 = 0.0007185	1.07	0.97	0.83	0.75	–
x2 = 0.002562, x1 = 0.001436	1.06	0.98	0.86	0.87	0.79

CCOS(=O)(=O)[O-].CC[NH+]=C(N(C)C)N(C)C + CCCO
100 kPa, x2 = 0
Conditions	viscosity [mPa·s]
293.15 K	670
323.15 K	91

CCCC[n+]1ccn(C)c1.N#C[S-] + CCCCCCO
101 kPa
Conditions	viscosity [mPa·s]
298.15 K, x2 = 0.1505	36.2
308.15 K, x2 = 0.1505	24.6
308.15 K, x2 = 0.453	13.1
308.15 K, x2 = 0.9102	4.42
318.15 K, x2 = 0.6307	6.91
318.15 K, x2 = 0.9102	3.41
328.15 K, x2 = 0.6962	4.59
328.15 K, x2 = 0.7583	3.92
328.15 K, x2 = 0.8512	3.17
338.15 K, x2 = 0.0424	12
338.15 K, x2 = 0.3093	8.15
338.15 K, x2 = 0.453	6.07
338.15 K, x2 = 0.5773	4.76
348.15 K, x2 = 0.0424	9.56

CCCC[n+]1ccn(C)c1.N#C[N-]C#N + F[B-](F)(F)F.[Li+]
101 kPa, x1 = 1
Conditions	electrical conductivity [S/m]
288.15 K	0.596
298.15 K	0.925
333.15 K	2.77

CCC[N+](C)(C)C.O=S(=O)([N-]S(=O)(=O)C(F)(F)F)C(F)(F)F + CCC[N+]1(C)CCCCC1.O=S(=O)([N-]S(=O)(=O)C(F)(F)F)C(F)(F)F
101.3 kPa
Conditions	viscosity [mPa·s]
283.15 K, x1 = 0.6	248
283.15 K, x1 = 0.8	201
293.15 K, x1 = 0.6	134
293.15 K, x1 = 0.8	113
308.15 K, x1 = 0.4	71
308.15 K, x1 = 0.6	64
313.15 K, x1 = 0.8	45.9
318.15 K, x1 = 0.4	46.4
318.15 K, x1 = 0.6	42.3
343.15 K, x1 = 0.4	20.2
343.15 K, x1 = 0.8	17.5
348.15 K, x1 = 0.8	15.4
348.15 K, x1 = 1	14.6

CCCCCCCCCCCn1cc[n+](C)c1.O=S(=O)([N-]S(=O)(=O)C(F)(F)F)C(F)(F)F + O
Conditions	viscosity [mPa·s]
338.15 K, 100 kPa, x2 = 0.1567	20.54

ClCCCl + CCCC[n+]1ccn(C)c1.O=S(=O)([N-]S(=O)(=O)C(F)(F)F)C(F)(F)F
Conditions	electrical conductivity [S/m]
294.5 K, 100 kPa, x2 = 0.02555	0.68

C[N+]1(CCOCCOCCOCC[N+]2(C)CCCC2)CCCC1.N#C[N-]C#N.N#C[N-]C#N + CC[n+]1ccn(C)c1.N#C[N-]C#N + O=S(=O)([N-]S(=O)(=O)C(F)(F)F)C(F)(F)F.[Li+]
100 kPa, x1 = 0.252, x2 = 0.6578
Conditions	electrical conductivity [S/m]
298 K	0.522
303 K	0.63
313 K	0.854
323 K	1.16
333 K	1.48
343 K	1.86
